Reference: patent US20190167814A1, “Treatment And/Or Prevention Of DNA-Triplet Repeat Diseases Or Disorders” (UNIVERSITÉ DE LAUSANNE, priority 2016, published 2019)

Experiments:
[1] = tested on: GFP(CAG)101 cells; experiment: Cell cycle analysis upon inhibitor treatment (propidium iodine, flow cytometry); format: cell-based, human; conditions: for >2n / >4n / G1 / G2 / S: Cas9 D10A + gCTG cells, DMSO or inhibitor 1 μM, 96 hours, average % of cells, n = 4
Procedure: (§1) When using small molecule inhibitors (Table 4), the cells were treated as above, except that 2×10^5 fewer cells/well were used. The medium, along with the dox and the inhibitors, were replaced for another 48 hours of treatment. Cell cycle analysis was performed after 96 hours of treatment. Briefly, the cells were fixed with 100% ethanol and treated with RNAseA (50 μg/mL) before adding propidium iodine (50 μg/mL). Flow cytometry analysis was performed as described below.

[2] = tested on: GFP(CAG)101 cells; experiment: GFP-based assay for CAG repeat expansions and contractions (flow cytometry of GFP- and GFP+ cells); format: cell-based, human; conditions: for frequency of GFP+ cells (contractions) induced by Cas9 nickase + gCTG under inhibitor, in words: inhibitor 1 μM, compared to DMSO controls; for Cas9 nickase + gCTG-induced GFP-/GFP+ cells on siRNA knockdown, in words: 20 nM siRNA, compared to control knockdown of vimentin
Procedure: (§2) The GFP(CAG)0 and GFP(CAG)101 cells lines were a kind gift from John H. Wilson^3. The cells tested negative for mycoplasma using the MycoAlert detection kit (Lonza) at the start of our experiments. The GFP(CAG)15, GFP(CAG)18, GFP(CAG)42, GFP(CAG)50, and GFP(CAG)270 were isolated from populations grown for 6 months unperturbed or after transfection with the ZFN. […] The cells were maintained at 37° C. with 5% CO2 in Dulbecco's modified Eagle's medium (DMEM) glutamax, supplemented with 10% Fetal Bovine Serum (FBS), 100 U/mL penicillin (pen), 100 μg/mL streptomycin (strep), 15 μg/mL blasticidine and 150 μg/mL hygromycin. When the cells were destined for flow cytometry, they were kept in DMEM glutamax, with 10% of dialyzed calf serum, along with pen-strep. During the long term culturing, the cells were split 1 to 5 twice a week and the medium was supplemented with blasticidine and hygromycin to ensure continued expression of the TetR and GFP transgenes.
The plasmids used in this study are found in Table 2. cDNA transfections were performed using 6×10^5 cells/well in 12-well plates using a total of 1 μg of DNA and Lipofectamine 2000 (Life Technologies) per well. The culture medium was replaced 6 hours after transfection and 2 μg/mL of dox, diluted in DMSO, was added. Controls without dox were treated with DMSO alone. Forty-eight hours later, the medium was replaced and dox was freshly added. Flow cytometry, protein extraction, and/or DNA extraction were performed after another 48 hours of incubation.
The siRNAs used in this study are found in Table 3. When transfecting with both a cDNA and a siRNA, 8×10^5 cells/well were used along with 1 μg of DNA and 20 nM of siRNAs using Lipofectamine 2000. The medium was replaced 6 hours later and dox was added. Forty-eight hours after the first transfection, we performed a second siRNA transfection with RNAiMax (Life technologies) using half of the cells present and 20 nM of siRNA. We collected the cells to assess knockdown efficiency or GFP fluorescence analysis 48 hours later. When transfecting two siRNAs, we used a final siRNA concentration of 40 nM, where 20 nM of each individual siRNA were used.
as §1
(§3) In preparation for flow cytometry analysis, cells were re-suspended in phosphate buffered saline (PBS) with 1 mM EDTA to a concentration of about 10^6 cells/mL. For each condition, we measured at least 2×10^5 events using a LSRII from BD. Data analysis was done using Flowing II. FACS was performed using a FACS Aria II (BD) or MoFlo Astrios (Beckman Coulter). For single clone analyses, we re-suspended the cells to a concentration of 2×10^6 cells/mL and sorted the GFP^− and GFP^+ cells. The cells were then expanded in DMEM glutamax supplemented with pen-strep, blasticidine, hygromycin, 5% FBS, and 5% dialyzed calf serum. For DNA isolation, cells were re-suspended to a concentration of 1.4×10^7 cells/mL and we isolated between 4×10^4 and […] from the GFP− and GFP^+ populations. We also isolated cells with GFP intensities between the 25th and 75th percentiles. For viability tests, cells were treated as described above except that 96 hours after the first transfection they were collected in PBS with 1 mM EDTA and 1 μM of TO-PRO-3 was added as a dead cell marker.
To quantify the fold increase in the number of GFP^+ or GFP^− cells, we first established gates that contained the top or bottom 1% of GFP expressing cells in the control treatment, for example the nickase plasmid transfected together with an empty gRNA vector (pPN10). […]

[3] = tested on: GFP(CAG)101 cells; experiment: Cell viability (TO-PRO-3 dead cell marker, flow cytometry); format: cell-based; conditions: Cas9 D10A + gCTG transfected cells treated with DMSO or inhibitor (1 μM); three experiments
Procedure: as §3

[4] = tested on: PARP1/2; experiment: PAR levels after Zeocin treatment (western blot); format: cell-based, human; conditions: 100 μg/ml Zeocin, 30 minutes and 24 hours
Text: Dashed line: dimmest (GFP^−) or brightest (GFP^+) 1% of the cells transfected with the Cas9 nickase vector; the empty gRNA plasmid; and the indicated siRNAs. Right: western blot showing knockdown efficiency by siRNA against XRCC1. B) Left: same as A, but cells treated with the PARP inhibitor Oliparib (n=4, P=0.5 for GFP^− cells and P=0.4 for GFP^+ compared to DMSO treated-cells, using a Wilcoxon U-test). Dashed line: dimmest (GFP^−) or brightest (GFP^+) 1% of the cells transfected with the Cas9 nickase vector together with the empty gRNA plasmid, and treated with either DMSO or Oliparib. Right: PAR levels 30 minutes and 24 hours after treatment with 100 μg/ml of Zeocin. The error bars represent the standard error.
Protein extraction was done using RIPA buffer and proteinase inhibitor cocktail tablets (Roche, Germany) and at least 10 μg of proteins were loaded onto a 6% or 10% Tris/glycine SDS polyacrylamide gels and transferred onto nitrocellulose membranes. The antibodies used in this study are found in Table 6. An Odyssey Infrared Imager (Licor) was used for signal detection.

[5] = tested on: GFP(CAG)0 cells; experiment: GFP-based reporter assay in isogenic cell line devoid of CAG repeats; design: species or system human; conditions: GFP(CAG)0, no CAG repeats
Procedure: as §2, with “When the cells were destined for flow cytometry, they were kept in DMEM glutamax, with 10% of dialyzed calf serum, along with pen-strep. During the long term culturing, the cells were split 1 to 5 twice a week and the medium was supplemented with blasticidine and hygromycin to ensure continued expression of the TetR and GFP transgenes.” left out
In preparation for flow cytometry analysis, cells were re-suspended in phosphate buffered saline (PBS) with 1 mM EDTA to a concentration of about 10^6 cells/mL. For each condition, we measured at least 2×10^5 events using a LSRII from BD. […]
To quantify the fold increase in the number of GFP^+ or GFP^− cells, we first established gates that contained the top or bottom 1% of GFP expressing cells in the control treatment, for example the nickase plasmid transfected together with an empty gRNA vector (pPN10). […] Once the GFP gates established, we calculated the percentage of cells from the treated population (e.g., expressing both the Cas9 nickase and the gCTG) falling within these same gates. […]

[6] = inhibitor 1 μM in combination with Cas9-nickase and gCTG, vs nickase + pPN10 + inhibitor

Compound | >2n [1] [%] | >4n [1] [%] | G1 [1] [%] | G2 [1] [%] | S [1] [%] | frequency of GFP+ cells (contractions) induced by Cas9 nickase + gCTG under inhibitor, in words [2] | Viability % [3] [%] | Cas9 nickase + gCTG-induced GFP-/GFP+ cells on siRNA knockdown, in words [2] | also measured
C[C@@H]1CN(CC(=O)Nc2ccc3c(c2)Cc2cccc(-c4cc(=O)cc(N5CCOCC5)o4)c2S3)C[C@H](C)O1 [KU60019] | 7.5 | 4.9 ± 1 | 34.9 | 37.2 | 15.3 | nearly two-fold reduction | 77.2 | – | –
O=C(c1cc(Cc2n[nH]c(=O)c3ccccc23)ccc1F)N1CCN(C(=O)C2CC2)CC1 [Oliparib] | 5.0 | 5.3 ± 1 | 40.7 | 30.0 | 19.0 | Neither treatment changed the frequency | 75.9 | – | PARylation in response to zeocin treatment [4]: inhibiting PARylation; cell cycle effect, in words [1]: accumulation of G2 cells
CS(=O)(=O)c1ccc(-c2cnc(N)c(C(=O)Nc3ccccc3)n2)cc1 [VE-821] | 2.0 | 10.3 ± 3 | 41.4 | 25.4 | 20.9 | – | – | – | effect on GFP intensities / GFP expression, in words [5]: did not affect GFP expression; fold increase in GFP+ cells [2, 6]: 5.9 fold; fold increase in GFP- cells [2, 6]: 3.1 fold
siMSH2: siRNA targeting MSH2, SEQ ID No. 6 (UCUGCAGAGUGUUGUGCUU; listed as RNA, chemistry not given here) | – | – | – | – | – | – | – | did not consistently reduce | –
siRNA against XRCC1: siRNA targeting XRCC1, SEQ ID No. 8 (CAGUUUGUGAUCACAGCACAGGAAU; listed as RNA, chemistry not given here) | – | – | – | – | – | – | – | did not affect the GFP expression | –
siXPA: siRNA targeting XPA, SEQ ID No. 7 (GCUACUGGAGGCAUGGCUA; listed as RNA, chemistry not given here) | – | – | – | – | – | – | – | did not significantly reduce | –
